Experimental data: US8445542B2, “Methods of accelerating muscle growth, decreasing fat deposits and improving feed efficiency in livestock animals” (Bridge Pharma, Inc., priority 2006, dated 2013)

How the values were obtained:
[1] = test system: adrenergic beta-receptor; test: Adrenergic beta-receptor stimulating activity of the isomers; details: compared with RR-ractopamine; this document and Shappell et al, 2000
Description: J. Anim. Sci. 2000, 78: 699-708, which publication is hereby included in its entirety by reference.)

[2] = test system: Airway smooth muscle tissues; test: Airway smooth muscle contracted by carbachol; details: ongoing studies
Description: Airway smooth muscle tissues were contracted by carbachol. The inhibitory effects of isomers, enantiomeric pairs and a racemic mixture of ractopamine are being investigated.
Test results from these functional studies verify and support the results from the receptor binding studies.

[3] = test system: adrenergic alpha-receptors; details: isolated smooth and cardiac muscle tissues of rat and guinea pig; Colbert et al. 1991; cited from earlier work
[4] = test system: mice; test: Stress testing in mice, methodology of Aberg (U.S. Pat. No. 6,372,799)
[5] = target: adrenergic beta-3 receptors (Homo sapiens, UniProt P13945); test: Receptor binding, beta-3 (present studies)
[6] = test system: livestock animals; details: Marchant-Forde et al., cited from earlier work; for tachycardia in livestock animals: 2003 and London et al. 2005
[7] = target: beta-3 receptors (Homo sapiens, UniProt P13945); details: background statement; cited from earlier work
[8] = test system: adrenergic beta-receptors in adipose tissue; details: animals exposed to the drug; Spurlock et al. 1994; cited from earlier work
[9] = test system: laboratory animals; test: Neuropharmacological profile (Irwin test), repeated oral administration
[10] = test system: mice; test: Spontaneous motor activity in mice (part of Irwin tests); format: in vivo; details: oral
[11] = Optical stability
[12] = target: porcine adrenergic β-2 receptors (Sus scrofa, UniProt Q28997); details: Mills et al., 2003; cited from earlier work
[13] = target: adrenergic beta-1 receptors (Homo sapiens, UniProt P08588); test: Receptor binding studies, beta-1
Description: Interesting and important advantages of receptor selectivity by RR-ractopamine were found.

beta-3 receptors, sequence (P13945 whole entry): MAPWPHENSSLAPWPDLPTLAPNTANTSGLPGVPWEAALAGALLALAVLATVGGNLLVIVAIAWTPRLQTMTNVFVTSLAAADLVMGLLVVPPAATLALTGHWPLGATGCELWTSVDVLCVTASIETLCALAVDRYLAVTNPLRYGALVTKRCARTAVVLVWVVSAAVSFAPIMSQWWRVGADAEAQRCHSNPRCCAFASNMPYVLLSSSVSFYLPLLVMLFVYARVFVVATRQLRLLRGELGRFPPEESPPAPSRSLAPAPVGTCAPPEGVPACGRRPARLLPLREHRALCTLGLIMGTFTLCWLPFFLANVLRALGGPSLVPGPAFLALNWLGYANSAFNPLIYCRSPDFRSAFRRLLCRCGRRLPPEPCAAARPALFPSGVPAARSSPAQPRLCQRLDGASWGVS
adrenergic beta-3 receptors, sequence (P13945 whole entry): as above
adrenergic beta-1 receptors, sequence (P08588 whole entry): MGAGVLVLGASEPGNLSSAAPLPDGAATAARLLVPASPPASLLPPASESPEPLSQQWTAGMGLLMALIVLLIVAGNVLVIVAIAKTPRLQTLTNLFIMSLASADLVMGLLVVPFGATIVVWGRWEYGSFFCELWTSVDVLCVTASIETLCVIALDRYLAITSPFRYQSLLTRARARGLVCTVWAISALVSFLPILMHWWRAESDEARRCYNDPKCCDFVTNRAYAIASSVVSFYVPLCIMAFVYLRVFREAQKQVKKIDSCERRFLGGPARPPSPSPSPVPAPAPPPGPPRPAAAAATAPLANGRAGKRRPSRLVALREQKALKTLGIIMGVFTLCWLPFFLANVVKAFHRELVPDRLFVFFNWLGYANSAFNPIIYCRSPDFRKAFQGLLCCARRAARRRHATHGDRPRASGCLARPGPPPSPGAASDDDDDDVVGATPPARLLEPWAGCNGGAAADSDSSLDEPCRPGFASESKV
porcine adrenergic β-2 receptors, sequence (Q28997 whole entry): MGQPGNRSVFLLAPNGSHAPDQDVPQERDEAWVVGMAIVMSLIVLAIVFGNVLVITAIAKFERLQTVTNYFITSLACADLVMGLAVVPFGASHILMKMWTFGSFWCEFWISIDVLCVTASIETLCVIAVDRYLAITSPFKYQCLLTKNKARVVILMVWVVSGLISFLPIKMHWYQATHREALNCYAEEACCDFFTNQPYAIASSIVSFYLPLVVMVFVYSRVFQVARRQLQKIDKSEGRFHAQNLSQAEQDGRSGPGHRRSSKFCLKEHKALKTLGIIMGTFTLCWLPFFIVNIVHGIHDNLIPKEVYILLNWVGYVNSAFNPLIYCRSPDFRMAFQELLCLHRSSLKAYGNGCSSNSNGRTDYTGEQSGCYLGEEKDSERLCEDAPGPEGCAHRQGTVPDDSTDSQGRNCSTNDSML

Molecule: C[C@@H](CCc1ccc(O)cc1)NC[C@@H](O)c1ccc(O)cc1 (racemic) [SS-ractopamine]
- adrenergic beta-receptor stimulating activity [1]: completely devoid of adrenergic beta-receptor stimulating activity
- airway smooth muscle relaxing activity [2]: very weak activity

Molecule: CC(CCc1ccc(O)cc1)NCC(O)c1ccc(O)cc1.Cl (racemic) [racemic ractopamine, 4-hydroxy-a-[[[3-(4-hydroxyphenyl)-1-methylpropyl]amino]methyl]benzenemethanol hydrochloride]
- effect on adrenergic alpha-receptors [3]: no significant effect
- CNS-mediated stress ([4]; mice, ongoing testing): demonstrate CNS-mediated stress
- affinity for adrenergic beta-3 receptors [5]: neither racemic ractopamine nor any of the ractopamine isomers had affinity
- CNS-mediated stress in livestock animals [6]; 2003: cause CNS-mediated stress
- tachycardia in livestock animals [6]: significant tachycardia
- affinity for beta-3 receptors [7]: negligible affinity
- reduction of the concentration of adrenergic beta-receptors in adipose tissue [8]: 50%
- stress in Irwin test ([9]; repeated oral administration): produced increased stress

Molecule: CC(C)(C)NC[C@H](O)c1ccc(O)c(CO)c1 [R-salbutamol]
- tachycardia in livestock animals [6]: not causing tachycardia
- stress in Irwin test ([9]; repeated oral administration): no stress

Molecule: CC(CCc1ccc(O)cc1)NCC(O)c1ccc(O)cc1 (centres unmarked) [RS]
- adrenergic beta-receptor stimulating activity [1]: reduced beta-receptor activity

Molecule: CC(C)(C)NCC(O)c1ccc(O)c(CO)c1 (centres unmarked) [salbutamol]
- affinity for beta-3 receptors [7]: negligible affinity

Molecule: RR-4-hydroxy-a-[[[3-(4-hydroxyphenyl)-1-methylpropyl]amino]methyl]benzenemethanol [RR-ractopamine]
- effect on spontaneous motor activity [10]: no statistically significant effects
- CNS-mediated stress ([4]; mouse, in vivo): not causing stress
- optical stability [11]: optically stable
- binding affinity relative to the racemic mixture of all four isomers [12]: about 2.5 times
- stress in Irwin test ([9]; mouse, in vivo, po): did not cause stress
- affinity for adrenergic beta-1 receptors compared with the racemic mixture of all four isomers [13]: higher affinity
